Laboratory results taken from PubChem BioAssay AID1963982 (Molecular Pharmacology Branch, DTP, NCI, 2024).

Test system: 313798-341-R-J2-PDC spheroids, viability
Assay: Anticancer human tumor 313798-341-R-J2-PDC patient-derived cervical squamous cell carcinoma cell line growth inhibition [PI3K]
Conditions: spheroids with HUVEC and MSC; for IC50: curve of first compound; for viability, T/C: stronger effect = lower value
Procedure, shortened: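 Spheroid viability read-out. Co-cultures contained the tumor line plus HUVEC and human MSCs. Each agent was paired with a PI3K inhibitor (inavolisib, alpelisib, duvelisib, copanlisib) across half-log dilutions starting at clinical Cmax, or at 10 microM when Cmax was unknown.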

[1] = second compound 0.0316 µM, first compound 0.0316 µM
[2] = second compound 0.0316 µM, first compound 0.1 µM
[3] = second compound 0.0316 µM, first compound 0.316 µM
[4] = second compound 0.0316 µM, first compound 1 µM
[5] = second compound 0.0316 µM, first compound 3.16 µM
[6] = second compound 0.0316 µM, first compound 10 µM
[7] = second compound 0.1 µM, first compound 0.0316 µM
[8] = second compound 0.1 µM, first compound 0.1 µM
[9] = second compound 0.1 µM, first compound 0.316 µM
[10] = second compound 0.1 µM, first compound 1 µM
[11] = second compound 0.1 µM, first compound 3.16 µM
[12] = second compound 0.1 µM, first compound 10 µM
[13] = second compound 0.316 µM, first compound 0.0316 µM
[14] = second compound 0.316 µM, first compound 0.1 µM
[15] = second compound 0.316 µM, first compound 0.316 µM
[16] = second compound 0.316 µM, first compound 1 µM
[17] = second compound 0.316 µM, first compound 3.16 µM
[18] = second compound 0.316 µM, first compound 10 µM
[19] = second compound 1 µM, first compound 0.0316 µM
[20] = second compound 1 µM, first compound 0.1 µM
[21] = second compound 1 µM, first compound 0.316 µM
[22] = second compound 1 µM, first compound 1 µM
[23] = second compound 1 µM, first compound 3.16 µM
[24] = second compound 1 µM, first compound 10 µM
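Further: spheroids exposed to compounds for seven days.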
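Wherever viability, T/C is given: 100% = DMSO vehicle control viability.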

`CCCS(=O)(=O)Nc1ccc(F)c(C(=O)c2c[nH]c3ncc(-c4ccc(Cl)cc4)cc23)c1F` + CC(Nc1ncnc2nc[nH]c12)c1cc2cccc(Cl)c2c(=O)n1-c1ccccc1 showed an IC50 (second compound 0.0316 µM) of 8.61 µM, an IC50 (second compound 0.1 µM) of 6.79 µM and an IC50 (second compound 0.316 µM) of 6.52 µM. For the same compound, the IC50 (second compound 1 µM) was 7.03 µM, the IC50 (second compound 3.16 µM) was 6.39 µM and the IC50 (second compound 10 µM) was 4.69 µM. It also gave a viability, T/C [1] of 103%, a viability, T/C [2] of 103% and a viability, T/C [3] of 108%. For the same compound, the viability, T/C [4] was 105%, the viability, T/C [5] was 96.5% and the viability, T/C [6] was 43%. It also gave a viability, T/C [7] of 112%, a viability, T/C [8] of 103% and a viability, T/C [9] of 90.3%. The viability, T/C [10] was 90.9%, the viability, T/C [11] was 92.8% and the viability, T/C [12] was 28.1%. The viability, T/C [13] was 92.6%, the viability, T/C [14] was 96.5% and the viability, T/C [15] was 101%. It also gave a viability, T/C [16] of 104%, a viability, T/C [17] of 93.9% and a viability, T/C [18] of 23.8%. The viability, T/C [19] was 112%, the viability, T/C [20] was 99.6% and the viability, T/C [21] was 98.8%. It also gave a viability, T/C [22] of 116%, a viability, T/C [23] of 98.8% and a viability, T/C [24] of 27.8%. For the same compound, the viability, T/C (second compound 3.16 µM, first compound 0.0316 µM) was 107%, the viability, T/C (second compound 3.16 µM, first compound 0.1 µM) was 101% and the viability, T/C (second compound 3.16 µM, first compound 0.316 µM) was 118%. It also gave a viability, T/C (second compound 3.16 µM, first compound 1 µM) of 106%, a viability, T/C (second compound 3.16 µM, first compound 3.16 µM) of 90.1% and a viability, T/C (second compound 3.16 µM, first compound 10 µM) of 24.5%. It also gave a viability, T/C (second compound 10 µM, first compound 0.0316 µM) of 95%, a viability, T/C (second compound 10 µM, first compound 0.1 µM) of 101% and a viability, T/C (second compound 10 µM, first compound 0.316 µM) of 91.2%. It also gave a viability, T/C (second compound 10 µM, first compound 1 µM) of 83.8%, a viability, T/C (second compound 10 µM, first compound 3.16 µM) of 69.2% and a viability, T/C (second compound 10 µM, first compound 10 µM) of 16.6%.
In the case of `CC(C)NCC(C(=O)N1CCN(c2ncnc3c2C(C)CC3O)CC1)c1ccc(Cl)cc1` (centres undefined) + COc1c(OCCCN2CCOCC2)ccc2c3n(c(=NC(=O)c4cnc(N)nc4)nc12)CCN3, the IC50 (second compound 0.00316 µM) is reported as 2.42 µM, the IC50 (second compound 0.01 µM) is reported as 1.21 µM and the IC50 (second compound 0.0316 µM) is reported as 1.62 µM. The IC50 (second compound 0.1 µM) was < 0.0316 µM, the IC50 (second compound 0.316 µM) was < 0.0316 µM and the IC50 (second compound 1 µM) was < 0.0316 µM. It also gave a viability, T/C (second compound 0.00316 µM, first compound 0.0316 µM) of 97.3%, a viability, T/C (second compound 0.00316 µM, first compound 0.1 µM) of 99% and a viability, T/C (second compound 0.00316 µM, first compound 0.316 µM) of 83%. It also gave a viability, T/C (second compound 0.00316 µM, first compound 1 µM) of 64.3%, a viability, T/C (second compound 0.00316 µM, first compound 3.16 µM) of 46.9% and a viability, T/C (second compound 0.00316 µM, first compound 10 µM) of 33%. For the same compound, the viability, T/C (second compound 0.01 µM, first compound 0.0316 µM) was 85.9%, the viability, T/C (second compound 0.01 µM, first compound 0.1 µM) was 97.1% and the viability, T/C (second compound 0.01 µM, first compound 0.316 µM) was 81.1%. It also gave a viability, T/C (second compound 0.01 µM, first compound 1 µM) of 52%, a viability, T/C (second compound 0.01 µM, first compound 3.16 µM) of 39.2% and a viability, T/C (second compound 0.01 µM, first compound 10 µM) of 29.8%. It also gave a viability, T/C [1] of 74.8%, a viability, T/C [2] of 73.6% and a viability, T/C [3] of 59.9%. For the same compound, the viability, T/C [4] was 63.2%, the viability, T/C [5] was 33% and the viability, T/C [6] was 26.1%. The viability, T/C [7] was 42.6%, the viability, T/C [8] was 38.6% and the viability, T/C [9] was 36.9%. For the same compound, the viability, T/C [10] was 34%, the viability, T/C [11] was 23.9% and the viability, T/C [12] was 18.6%. For the same compound, the viability, T/C [13] was 15.2%, the viability, T/C [14] was 18.4% and the viability, T/C [15] was 15.9%. It also gave a viability, T/C [16] of 17.6%, a viability, T/C [17] of 16.3% and a viability, T/C [18] of 8.87%. For the same compound, the viability, T/C [19] was 10.8%, the viability, T/C [20] was 11.6% and the viability, T/C [21] was 9.87%. It also gave a viability, T/C [22] of 13.1%, a viability, T/C [23] of 10.6% and a viability, T/C [24] of 5.77%.
